Results reported in PubChem BioAssay (NCI).
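Growth conditions: 96-well plates. Treatment: test compound, 48 hours, 5 concentrations. Analysis: linear interpolation between bracketing concentrations; unreached endpoints set to highest concentration. At the GI50, growth is halved. TGI is the concentration that stops growth completely.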

What was measured:
Assay in all cases: inhibition of tumour cell growth, NCI panel, 48 h
[1] = test system: COLO 205 colon
[2] = test system: HOP-92 NSCLC
[3] = test system: RPMI-8226 leukemia
[4] = test system: SK-MEL-28 melanoma
[5] = test system: SNB-19 CNS
[6] = test system: HCT-116 colon
[7] = test system: NCI-H226 lung
[8] = test system: TK-10 renal
[9] = test system: HOP-62 NSCLC
[10] = test system: A549 NSCLC

| Compound | GI50 [1] [µM] | TGI [1] [µM] | GI50 [2] [µM] | TGI [2] [µM] | GI50 [3] [µM] | TGI [3] [µM] | GI50 [4] [µM] | TGI [4] [µM] | GI50 [5] [µM] | TGI [5] [µM] | GI50 [6] [µM] | TGI [6] [µM] | GI50 [7] [µM] | TGI [7] [µM] | GI50 [8] [µM] | TGI [8] [µM] | GI50 [9] [µM] | TGI [9] [µM] | GI50 [10] [µM] | TGI [10] [µM] |
| --- | --- | --- | --- | --- | --- | --- | --- | --- | --- | --- | --- | --- | --- | --- | --- | --- | --- | --- | --- | --- |
| COc1cc2c(cc1OC)C(=O)/C(=C/c1cccc(OCC(=O)c3ccccc3)c1)C2 | 28 | > 100 | 0.569 | 27.8 | 1.4 | 3.9 | 58.4 | > 100 | 25.7 | > 100 | 5.44 | > 100 | 20.2 | > 100 | 57.8 | > 100 | 35.8 | > 100 | 26.6 | > 100 |
| O=C(Oc1ccc(Cl)cc1Cl)c1ccccc1Nc1ccnc(C(F)(F)F)c1 | – | – | 11.6 | 43.4 | 2.39 | 6.29 | – | – | – | – | – | – | 3.46 | 18.6 | 4.05 | 23.9 | – | – | 11.1 | 33.1 |
| COc1cc([C@H]2c3cc4c(cc3O[C@@]3(O)COC(=O)[C@@H]23)OCO4)cc(OC)c1OC | – | > 100 | – | > 100 | – | > 100 | – | > 100 | – | > 100 | – | > 100 | – | > 100 | – | > 100 | – | > 100 | – | > 100 |
| O=C(O)c1c(-c2cccc3ccccc23)sc(-c2cccc3ccccc23)c1C(=O)O | – | > 100 | – | > 100 | – | > 100 | – | > 100 | – | > 100 | – | > 100 | – | > 100 | – | > 100 | – | – | – | > 100 |
| O=[N+]([O-])c1ccc(C(c2c[nH]c3ccccc23)c2c[nH]c3ccccc23)cc1 | – | 21.8 | – | – | – | 13.4 | – | 36.1 | – | 35.8 | – | – | – | 32.1 | – | 28.5 | – | 30.3 | – | 41.4 |
| O=C(c1ccccc1)C(C(=O)c1ccccc1)C1(O)C(=O)c2ccccc2C1=O | – | > 100 | – | 64.6 | – | > 100 | – | > 100 | – | > 100 | – | – | – | > 100 | – | 55.2 | – | > 100 | – | > 100 |
| CCOC(=O)C(=O)Nc1nc2c(s1)C(=O)c1ccccc1C2=O | – | 56.4 | – | 25.3 | – | 48.2 | – | 27.6 | – | 31.9 | – | 27.7 | – | 34.4 | – | – | – | 33.5 | – | 34.4 |
| N#CCC1COc2ccccc2O1 (centres undefined) | – | > 10 | – | > 10 | – | > 10 | – | > 10 | – | > 10 | – | > 10 | – | – | – | > 10 | – | > 10 | – | > 10 |
| O=C(c1ccccc1)C(c1ccccc1)C1(O)C(=O)Nc2c(Cl)cc(Cl)cc21 (centres undefined) | – | 33.7 | – | 40 | – | 38.8 | – | 34.1 | – | 55.3 | – | – | – | 32.6 | – | 41.2 | – | – | – | 41.8 |
| O=C(CNc1nncs1)NO | – | > 100 | – | > 100 | – | > 100 | – | > 100 | – | > 100 | – | > 100 | – | – | – | > 100 | – | > 100 | – | > 100 |
| N#CCC(=O)Nc1cccc(C(F)(F)F)c1 | – | > 100 | – | – | – | – | – | > 100 | – | > 100 | – | > 100 | – | > 100 | – | > 100 | – | > 100 | – | > 100 |
| CC(=O)O/C=C(/C=C/OC(C)=O)C(C/C=C(\C)C#CC=C(C)C)OC(C)=O (centres undefined) | – | 68.5 | – | 91.3 | – | > 100 | – | – | – | > 100 | – | 39 | – | > 100 | – | > 100 | – | > 100 | – | > 100 |
| COc1ccc2cc(C(=O)/C=C/c3cc(OC)c(OC)c(OC)c3)ccc2c1 | 13.7 | > 50 | 21.9 | > 50 | 6.84 | > 50 | 3.91 | 13.8 | 12.9 | 26.3 | 1.62 | 8.27 | – | – | 9.61 | 31.4 | 9.88 | 20.8 | 2.56 | 44.5 |
| Cc1ccc(-[n+]2c3cc(N)c(C)cc3nc3cc(C)c(Nc4ccccc4)cc32)cc1 | 0.0461 | 0.326 | 0.15 | 0.556 | – | – | 0.266 | 1.33 | – | – | – | – | – | – | 0.148 | 1.04 | 0.0472 | 0.397 | 0.0441 | 1.19 |
| Cn1c(=O)nc2n(-c3ccc(Cl)cc3)c3ccc(Cl)cc3nc-2c1=O | – | – | – | 25.1 | – | – | – | 21.4 | – | – | – | 20.9 | – | 27.9 | – | 53.6 | – | 49.5 | – | > 100 |
| COc1cc2c3c(n(C)c(=O)c2cc1OC)-c1cc2c(cc1/C3=C\CCCCCN)OCO2 | 5.8 | > 100 | 4.03 | 29 | 0.1 | 1.38 | 33.7 | > 100 | 2.49 | 76.5 | – | – | 0.601 | 13.7 | – | 22.5 | 0.612 | > 45.9 | 6.53 | > 54.5 |
| Nn1c(-c2ccccc2)nc2ccc(Br)cc2c1=O | – | > 100 | – | 98 | – | > 100 | – | > 100 | – | > 100 | – | > 100 | – | > 100 | – | > 100 | – | – | – | > 100 |
| Cc1c2c(nn1-c1ccc(S(=O)(=O)NC(=S)Nc3ccccc3)cc1)-c1ccccc1CC2 | > 50 | > 50 | > 50 | > 50 | 15.5 | 42.4 | > 50 | > 50 | > 50 | > 50 | 18.2 | > 50 | > 50 | > 50 | 10 | 46.9 | – | – | > 50 | > 50 |
| CC1=C(C)C(=O)c2c(cc3ccc4ccccc4n23)C1=O | – | > 100 | – | – | – | > 100 | – | > 100 | – | > 100 | – | – | – | > 100 | – | > 100 | – | – | – | > 100 |
| COc1nc(N(C)O)nc(N(C)O)n1 | 1.24 | > 100 | – | – | 1.32 | > 100 | 2.41 | > 100 | 2.38 | > 100 | 0.402 | 3.88 | 2.48 | 55.4 | 1.97 | > 100 | 0.442 | 6.3 | 1.39 | > 100 |
